Source: paper PMC6980506, “Comparative pharmacokinetics and pharmacodynamics of the advanced Retinol-Binding Protein 4 antagonist in dog and cynomolgus monkey” (PLoS ONE, 2020)
Several values for one entry are separate records, joined by “and”; a condition that tells them apart may be missing. Identical values can stand only once. Like-named read-outs stand apart in the source and are kept apart here.

Experiment: Single dose pharmacokinetic study in beagle dog
Assay type: in vivo
Conditions: for Plasma level, Individual animals / concentration at 0.083 h / concentration at 0.25 h / concentration at 0.5 h / concentration at 1 h / concentration at 2 h / concentration at 4 h / concentration at 6 h / concentration at 8 h: male beagle dog; for concentration at 0.083 h / concentration at 0.25 h / concentration at 0.5 h / concentration at 1 h / concentration at 2 h / concentration at 4 h / concentration at 6 h / concentration at 8 h: male, beagle, dog, plasma, iv
Experimental: Pharmacokinetic studies were conducted in male beagle dogs and male cynomolgus monkeys at SRI International, Menlo Park, CA. General procedures for animal care and housing were in accordance with the National Research Council (NRC) Guide for the Care and Use of Laboratory Animals (1996) and the Animal Welfare Standards incorporated in 9 CFR Part 3, 1991 and complied with guidelines set forth by the ARVO Animal Statement for the Use of Animals in Ophthalmic and Vision Research. During the course of the PK experiments, cynomolgus monkeys were individually housed in stainless steel primary enclosures in an AAALAC-accredited facility. Animals were fed a commercial monkey chow, and supplemental food was provided (fresh fruits, vegetables, seeds, and nuts). Reverse osmosis-purified drinking water was available at all times. Cynomolgus monkeys were maintained on a 12:12 hour light:dark cycle at the 64–84°F temperature and 30–70% humidity. Monkeys had access to enrichment opportunities (grooming devices, foraging devices, activity panels and mirrors) and were provided auditory stimuli and human interaction enrichment throughout the study. Blood samples were collected by venipuncture of a peripheral vein. Animals were acclimated to the squeeze back mechanism in their home cage by repeated, short periods of restraint during general husbandry procedures for at least 2 weeks prior to dosing. Animal were not removed from their cages for collection, and no anesthesia/analgesic agents were used for blood collection. […] For PK experiments, beagle dogs were individually housed in enclosed run (≥ 4 ft x 6 ft). Dogs were exposed to their daily ration of food, Harlan Teklad 2025C Certified Global 25% Protein Dog Diet. Water was provided from the public water supply (municipal tap water) ad libitum. Dogs were maintained on a 12:12 hour light:dark cycle at the 72–73°F temperature and 40–71% humidity. Every effort was made to minimize, if not eliminate, pain and suffering in all animals in this study. No restraining devices were used in blood collecting procedures. Dogs were gentle hand-held to restrain by trained technicians with the dogs foreleg extended for sample collection of blood from cephalic vein. Animals were awake during blood sample collection with no anesthesia/analgesic agents used, and positive reinforcement by the technician was provided following collection. […] All dogs were released back to the colony after the study was completed. Male beagle dogs and male cynomolgus monkey received a single i.v. dose of a test compound at 0.5 mg kg^−1 (dog) and 1 mg kg^−1 (monkey) or a single p.o. dose of a test compound of at 2 mg kg^−1 (dog) and 5 mg kg^−1 (monkey). The number of animals that was used in PK experiments is 3 per study group. Intravenous administration vehicle was 3% DMA/45% PEG300/12% ethanol/40% sterile water; p.o. vehicle was 2% Tween 80 in 0.9% saline. […] Blood samples were processed to plasma. Following protein extraction with acetonitrile, compound concentrations in plasma were measured by LC-MS/MS. The plasma drug level data were analyzed using WinNonlin software package; Model 201 (for i.v. bolus administration);was used for the analysis of i.v. data, and Model 200 (for extravascular administration) was used for the analysis of the p.o. data. Aliquots of pre-dose plasma samples, as well as aliquots of plasma PK samples, were used for the analysis of the plasmabiomarker, RBP4.

- %F, bioavailability (Dog, 2.0 mg kg^−1 p.o. vs 0.5 mg kg^−1 i.v.): 84.2 ± 10.4%
- plasma concentrations of compound (dog plasma at 24, 36, and 48 hours after 2 mg kg^−1 oral dosing): 70 to 500 ng/mL
- Plasma level, Individual animals (iv 0.5 mg/kg, 0.083 hr, 0.5 mg/kg): 2750 ng/mL and 2650 ng/mL
- Plasma level, Individual animals (iv 0.5 mg/kg, 0.25 hr, 0.5 mg/kg): 2090 ng/mL and 2140 ng/mL
- Plasma level, Individual animals (iv 0.5 mg/kg, 0.5 hr, 0.5 mg/kg): 1820 ng/mL and 1800 ng/mL
- Plasma level, Individual animals (iv 0.5 mg/kg, 1 hr, 0.5 mg/kg): 1270 ng/mL and 1380 ng/mL
- Plasma level, Individual animals (iv 0.5 mg/kg, 2 hr, 0.5 mg/kg): 1060 ng/mL and 1000 ng/mL
- Plasma level, Individual animals (iv 0.5 mg/kg, 4 hr, 0.5 mg/kg): 492 ng/mL and 458 ng/mL
- Plasma level, Individual animals (iv 0.5 mg/kg, 6 hr, 0.5 mg/kg): 284 ng/mL and 281 ng/mL
- Plasma level, Individual animals (iv 0.5 mg/kg, 8 hr, 0.5 mg/kg): 203 ng/mL and 207 ng/mL
- Plasma level, Individual animals (iv 0.5 mg/kg, 12 hr, 0.5 mg/kg): 69.2 ng/mL and 141 ng/mL and 111 ng/mL
- Plasma level, Individual animals (iv 0.5 mg/kg, 24 hr, 0.5 mg/kg): 186 ng/mL and 171 ng/mL
- Plasma level, Individual animals (iv 0.5 mg/kg, 36 hr, 0.5 mg/kg): 47.1 ng/mL and 42.5 ng/mL
- Plasma level, Individual animals (iv 0.5 mg/kg, 48 hr, 0.5 mg/kg): 102 ng/mL and 93.0 ng/mL
- Plasma level, Individual animals (po 2 mg/kg, 0.25 hr, 2 mg/kg): 9280 ng/mL and 4890 ng/mL
- Plasma level, Individual animals (po 2 mg/kg, 0.5 hr, 2 mg/kg): 7730 ng/mL and 6080 ng/mL
- Plasma level, Individual animals (po 2 mg/kg, 1 hr, 2 mg/kg): 6080 ng/mL and 5100 ng/mL
- Plasma level, Individual animals (po 2 mg/kg, 2 hr, 2 mg/kg): 4460 ng/mL and 4300 ng/mL
- Plasma level, Individual animals (po 2 mg/kg, 4 hr, 2 mg/kg): 2560 ng/mL and 2080 ng/mL
- Plasma level, Individual animals (po 2 mg/kg, 8 hr, 2 mg/kg): 971 ng/mL and 885 ng/mL
- Plasma level, Individual animals (po 2 mg/kg, 10 hr, 2 mg/kg): 581 ng/mL and 690 ng/mL
- Plasma level, Individual animals (po 2 mg/kg, 12 hr, 2 mg/kg): 391 ng/mL and 753 ng/mL
- Plasma level, Individual animals (po 2 mg/kg, 24 hr, 2 mg/kg): 542 ng/mL and 277 ng/mL
- Plasma level, Individual animals (po 2 mg/kg, 36 hr, 2 mg/kg): 95.3 ng/mL and 105 ng/mL
- Plasma level, Individual animals (po 2 mg/kg, 48 hr, 2 mg/kg): 152 ng/mL and 160 ng/mL and 67.0 ng/mL
- concentration at 0.083 h (0.5 mg/kg, iv 0.5 mg/kg, 0.083 hr, read-out: Plasma level, Individual animals): 2660 ng/mL
- concentration at 0.083 h (0.5 mg/kg, iv 0.5 mg/kg, 0.083 hr, read-out: Plasma level, Mean): 2690 ng/mL
- concentration at 0.25 h (0.5 mg/kg, iv 0.5 mg/kg, 0.25 hr, read-out: Plasma level, Individual animals): 2000 ng/mL
- concentration at 0.25 h (0.5 mg/kg, iv 0.5 mg/kg, 0.25 hr, read-out: Plasma level, Mean): 2080 ng/mL
- concentration at 0.5 h (0.5 mg/kg, iv 0.5 mg/kg, 0.5 hr, read-out: Plasma level, Individual animals): 1690 ng/mL
- concentration at 0.5 h (0.5 mg/kg, iv 0.5 mg/kg, 0.5 hr, read-out: Plasma level, Mean): 1770 ng/mL
- concentration at 1 h (0.5 mg/kg, iv 0.5 mg/kg, 1 hr, read-out: Plasma level, Individual animals): 1500 ng/mL
- concentration at 1 h (0.5 mg/kg, iv 0.5 mg/kg, 1 hr, read-out: Plasma level, Mean): 1380 ng/mL
- concentration at 2 h (0.5 mg/kg, iv 0.5 mg/kg, 2 hr, read-out: Plasma level, Individual animals): 1020 ng/mL
- concentration at 2 h (0.5 mg/kg, iv 0.5 mg/kg, 2 hr, read-out: Plasma level, Mean): 1030 ng/mL
- concentration at 4 h (0.5 mg/kg, iv 0.5 mg/kg, 4 hr, read-out: Plasma level, Individual animals): 442 ng/mL
- concentration at 4 h (0.5 mg/kg, iv 0.5 mg/kg, 4 hr, read-out: Plasma level, Mean): 464 ng/mL
- concentration at 6 h (0.5 mg/kg, iv 0.5 mg/kg, 6 hr, read-out: Plasma level, Individual animals): 308 ng/mL
- concentration at 6 h (0.5 mg/kg, iv 0.5 mg/kg, 6 hr, read-out: Plasma level, Mean): 291 ng/mL
- concentration at 8 h (0.5 mg/kg, iv 0.5 mg/kg, 8 hr, read-out: Plasma level, Individual animals): 217 ng/mL
- concentration at 8 h (0.5 mg/kg, iv 0.5 mg/kg, 8 hr, read-out: Plasma level, Mean): 209 ng/mL
Structure (SMILES): Cc1cc(C(=O)O)nc(N2C[C@H]3C[C@@H](c4ccccc4C(F)(F)F)C[C@H]3C2)n1 [BPN-14136]
